The record followed here is patent publication US8304447B2, “2-acylaminopropoanol-type glucosylceramide synthase inhibitors” (Genzyme Corporation, priority 2007, dated 2012).

pIC50: −log10 of the molar value. Like-named read-outs stand apart in the source and are kept apart here.

In the test the test system is GM3. Briefly: GM3 Elisa assay. The conditions noted are these: B16-FO cells, read-out: IC50_uM_Mean. The format is cell-based. The procedure: B16-FO cells from ATCC (American Tissue Culture Collection) were grown in DMEM media (ATCC) with 10% Fetal Bovine Serum (Hyclone) and Pen/Step/Glutamine (Biowhittaker). 4000 cells per well were plated on collagen coated plates (BD) and allowed to attach for 6 hours in an incubator (37 degrees, 5% CO2). After 6 hours the compounds and controls were added to the wells, the plates mixed and returned to the incubator for 2 days. Day of assay the cells were fixed for 20 minutes with 1% formaldehyde and then washed with Tris Buffered Saline (TBS) 3 times, 150 μl of TBS was left in the wells and 50 μl of goat serum (Invitrogen) was added, the plates mixed and incubated for 1 hour at room temperature. The plates were flicked and the cells incubated with the monoclonal Antibody to GM3 (NeuAc) (Cosmo) for 45 minutes as room temperature. The plates were then washed 3 times with TBS, leaving 150 μl of TBS in the wells and Peroxidase AffinPure F (ab′) 2 frag Gt Anti-mouse IgM, μ Chain Specific (Jackson Immuno Research) was added in 50 μl, the plates mixed and incubated for 45 minutes at room temperature. The plates were washed 3 times with TBS, flicked and blotted and 100 μl of Quantablu (Pierce) was added to the wells and incubated for 1 hour then read on a Fluorometer at Ex 325 and Em 420. The data was then analyzed using standard programs.

Setting [1] is: 48 h, Table 1, 2 days incubation.

For `Cc1ccc(OCCC(=O)N[C@H](CN2CC[C@@H](F)C2)[C@H](O)c2ccc(OCCCCF)cc2)cc1` [Compound 739], under “Table 3 (IC 50 Values)”, the pIC50 was no less than 7.00.
Still for that read-out and setting: the same measure for `O=C(CCCCCC(F)(F)C(F)(F)F)N[C@H](CN1CCCC1)[C@H](O)c1ccc2c(c1)OCCO2` [Compound 621]: 5.52 to 6.00; for `O=C(N[C@H](CN1CCCC1)[C@H](O)c1ccc2c(c1)OCCO2)C1CCC(C(F)(F)F)CC1` (stereo partly shown) [Compound 616]: 5.00 to 5.52.
Regarding `COc1ccc(OCCC(=O)N[C@H](CN2CC[C@H](O)C2)[C@H](O)c2ccc3c(c2)OCCO3)cc1` [Compound 514], the pIC50 (Table 3 (IC 50 Values)) was 6.00 to 7.00.
Consider `COc1ccc(C(=O)CCCC(=O)N[C@H](CN2CC[C@@H](F)C2)[C@H](O)c2ccc(OCCCCF)cc2)cc1` [Compound 736], for which the pIC50 (Table 3 (IC 50 Values)) was no less than 7.00.
`COc1ccc(OCCC(=O)N[C@H](CN2CCCC2)[C@H](O)c2ccc(OC)c(Cl)c2)cc1` [Compound 711]: the pIC50 (Table 3 (IC 50 Values)) is no less than 7.00.
Still for that read-out and setting: the same measure for `COc1ccc(C(=O)CCCCC(=O)N[C@H](CN2CCCC2)[C@H](O)c2ccc(OCCCOc3cccc(C)c3)cc2)cc1` [Compound 437]: no less than 7.00; for `COc1ccc(OCCC(=O)N[C@H](CN2CCCC2)[C@H](O)/C=C/c2ccccc2)cc1` [Compound 396]: 5.00 to 5.52.
`COc1ccc(OCCCC(=O)N[C@H](CN2CC[C@H](O)C2)[C@H](O)c2ccc(OC(C)C)cc2)cc1` [Compound 733]: the pIC50 (Table 3 (IC 50 Values)) was no less than 7.00.
For `CCCCOc1ccc([C@@H](O)[C@@H](CN2CC[C@H](O)C2)NC(=O)CCCCCOCCF)cc1` [Compound 661], the pIC50 (Table 3 (IC 50 Values)) is 5.52 to 6.00.
For the compound `O=C(Nc1cccc(C(F)(F)F)c1)N[C@H](CN1CCCC1)[C@H](O)c1ccc2c(c1)OCCO2` [Compound 68, 1-((1R,2R)-1-(2,3-dihydrobenzo[β][1,4]dioxin-6-yl)-1-hydroxy-3-(pyrrolidin-1-yl)propan-2-yl)-3-(3-(trifluoromethyl)phenyl)urea], under setting [1], the pIC50 is 6.00 to 7.00.
In the case of `COc1ccc(C(=O)CCCCCC(=O)N[C@H](CN2CCCC2)[C@H](O)c2ccc(C(F)(F)F)cc2)cc1` [Compound 484], the pIC50 (Table 3 (IC 50 Values)) is 5.52 to 6.00.
`CC(C)Oc1ccc([C@@H](O)[C@@H](CN2CC[C@@H](F)C2)NC(=O)Cc2ccc(-c3ccc(Cl)cc3)cc2)cc1` [Compound 446]: the pIC50 (Table 3 (IC 50 Values)) was no less than 7.00.
In the case of `COc1ccc(OCCC(=O)N[C@H](CN2CCCC2)[C@H](O)c2ccc(OC)c(OC)c2)cc1` [Compound 274], where the note is “48 h, Table 2, 2 days incubation”, the pIC50 was 5.52 to 6.00.
With `COc1cccc(OCCC(=O)N[C@H](CN2CCCC2)[C@H](O)c2ccc3c(c2)OCCO3)c1` [Compound 54, N-((1R,2R)-1-(2,3-dihydrobenzo[β][1,4]dioxin-6-yl)-1-hydroxy-3-(pyrrolidin-1-yl)propan-2-yl)-3-(3-methoxyphenoxy)propanamide], under setting [1], the pIC50 was no less than 7.00.
Take `O=C(Cc1ccc(OC(F)(F)F)cc1)N[C@H](CN1CCCC1)[C@H](O)c1ccc(OCc2ccccc2)cc1` [Compound 702]: the pIC50 (Table 3 (IC 50 Values)) is no less than 7.00.
With `CCCCOc1ccc([C@@H](O)[C@@H](CN2CC[C@@H](F)C2)NC(=O)CCCCC(=O)c2ccc(F)cc2)cc1` [Compound 658], where the note is “Table 3 (IC 50 Values)”, the pIC50 was 6.00 to 7.00.
For the compound `O=C(CC(F)(F)F)N[C@H](CN1CCCC1)[C@H](O)c1ccc2c(c1)OCCO2` [Compound 624], the pIC50 (Table 3 (IC 50 Values)) is 5.00 to 5.52.
With `CCCCCCOc1ccc([C@@H](O)[C@@H](CN2CC[C@@H](F)C2)NC(=O)CCOc2ccc(Cl)cc2)cc1` [Compound 731], the pIC50 (Table 3 (IC 50 Values)) is no less than 7.00.
As for `COc1ccc(C(=O)CCCCCC(=O)N[C@H](CN2CCC2)[C@H](O)c2ccc3c(c2)OCCO3)cc1` [Compound 603], for the setting “Table 3 (IC 50 Values)”, the pIC50 was 6.00 to 7.00.
As for `COc1ccc(C(=O)CCCCCC(=O)N[C@H](CN2CCC(C)(C)C2)[C@H](O)c2ccc3c(c2)OCCO3)cc1` [Compound 520], where the note is “Table 3 (IC 50 Values)”, the pIC50 was 5.52 to 6.00.
As to `COc1ccc(OCCC(=O)N[C@H](CN2CCC(C)CC2)[C@H](O)c2ccc3c(c2)OCCO3)cc1` [Compound 610], for the setting “Table 3 (IC 50 Values)”, the pIC50 was 5.00 to 5.52.
